Measurements reported in patent US9062078B2, “Substituted 7-azabicyles and their use as orexin receptor modulators” (priority 2013, dated 2015).
Like-named read-outs stand apart in the source and are kept apart here.

How the values were obtained:
human orexin 2 receptor = human orexin 2 receptor (Homo sapiens (Human), UniProt O43614); experiment: Human orexin 2 receptor radioligand binding (competitive, [3H]-EMPA, HEK293 cell preparations)
human orexin 1 receptor = human orexin 1 receptor (Homo sapiens (Human), UniProt O43613); experiment: Human orexin 1 receptor radioligand binding (competitive, [3H]-SB674042, CHO cell preparations)
Chain of human orexin 1 receptor (O43613 whole entry): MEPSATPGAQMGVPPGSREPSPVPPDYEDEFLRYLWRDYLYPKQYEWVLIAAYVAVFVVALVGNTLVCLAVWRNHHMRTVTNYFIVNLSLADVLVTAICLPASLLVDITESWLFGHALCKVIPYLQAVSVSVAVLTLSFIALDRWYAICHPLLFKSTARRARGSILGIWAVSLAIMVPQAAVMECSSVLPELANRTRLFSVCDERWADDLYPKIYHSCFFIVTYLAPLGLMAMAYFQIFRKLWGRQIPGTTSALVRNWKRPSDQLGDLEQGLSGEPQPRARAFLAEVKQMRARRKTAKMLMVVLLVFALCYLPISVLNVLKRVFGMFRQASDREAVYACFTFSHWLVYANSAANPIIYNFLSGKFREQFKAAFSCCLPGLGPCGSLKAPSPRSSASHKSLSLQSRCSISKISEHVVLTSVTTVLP

rat orexin 1 receptor = rat orexin 1 receptor (Rattus norvegicus, UniProt P56718); experiment: Rat orexin 1 receptor radioligand binding (competitive, [3H]-SB674042, HEK293 cell preparations)
[1] = human orexin 2 receptor, [3H]-EMPA competition binding, read-out: hOX2 Ki (nm)
[2] = human orexin 1 receptor, [3H]-SB674042 competition binding, read-out: hOX1 Ki (nm)
[3] = rat orexin 1 receptor, [3H]-SB674042 competition binding, read-out: rOX1 Ki (nm)

Chain of human orexin 2 receptor (O43614 whole entry): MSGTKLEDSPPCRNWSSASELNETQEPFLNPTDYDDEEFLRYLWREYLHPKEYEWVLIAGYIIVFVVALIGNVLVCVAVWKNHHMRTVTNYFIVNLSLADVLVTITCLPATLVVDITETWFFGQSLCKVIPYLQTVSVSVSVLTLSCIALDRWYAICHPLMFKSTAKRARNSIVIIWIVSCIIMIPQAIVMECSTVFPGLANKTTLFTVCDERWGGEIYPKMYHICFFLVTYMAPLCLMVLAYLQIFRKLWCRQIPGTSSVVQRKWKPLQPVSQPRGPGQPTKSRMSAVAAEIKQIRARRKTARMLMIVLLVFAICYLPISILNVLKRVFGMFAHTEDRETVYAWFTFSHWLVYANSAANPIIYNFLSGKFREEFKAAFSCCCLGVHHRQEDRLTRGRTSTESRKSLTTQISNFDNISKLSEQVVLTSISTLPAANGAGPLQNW

COc1ccc(C(=O)N2[C@@H]3CC[C@H]2[C@H](Nc2cnc(C(F)(F)F)cn2)C3)c(-c2ncccn2)c1 [Example 249, (4-methoxy-2-(pyrimidin-2-yl)phenyl)((1S,2R,4R)-2-((5-(trifluoromethyl)pyrazin-2-yl)amino)-7-azabicyclo[2.2.1]heptan-7-yl)methanone]
Ki (human orexin 2 receptor; [1]): 5600 nM
Ki (human orexin 1 receptor; read-out: hOX1 Ki (nm)): 54 nM
Ki (rat orexin 1 receptor; read-out: rOX1 Ki (nm)): 57 nM

O=C(c1ccc(OC(F)F)cc1-n1nccn1)N1[C@@H]2CC[C@H]1[C@H](Nc1cnc(C(F)(F)F)cn1)C2 [Example 253, (4-(difluoromethoxy)-2-(2H-1,2,3-triazol-2-yl)phenyl)((1S,2R,4R)-2-((5-(trifluoromethyl)pyrazin-2-yl)amino)-7-azabicyclo[2.2.1]heptan-7-yl)methanone]
Ki (human orexin 2 receptor; [1]): 9600 nM
Ki (human orexin 1 receptor; [2]): 152 nM
Ki (rat orexin 1 receptor; [3]): 155 nM

COc1ccc(-n2nccn2)c(C(=O)N2[C@@H]3CC[C@H]2[C@H](Nc2cnc(C(F)(F)F)cn2)C3)c1 [Example 255, (5-methoxy-2-(2H-1,2,3-triazol-2-yl)phenyl)((1S,2R,4R)-2-((5-(trifluoromethyl)pyrazin-2-yl)amino)-7-azabicyclo[2.2.1]heptan-7-yl)methanone]
Ki (human orexin 2 receptor; [1]): 265 nM
Ki (human orexin 1 receptor; read-out: hOX1 Ki (nm)): 29 nM
Ki (rat orexin 1 receptor; read-out: rOX1 Ki (nm)): 32 nM

O=C(c1c(F)cccc1-n1nccn1)N1[C@@H]2CC[C@H]1[C@H](Nc1cnc(C(F)(F)F)cn1)C2 [Example 258, (2-fluoro-6-(2H-1,2,3-triazol-2-yl)phenyl)((1S,2R,4R)-2-((5-(trifluoromethyl)pyrazin-2-yl)amino)-7-azabicyclo[2.2.1]heptan-7-yl)methanone]
Ki (human orexin 2 receptor; [1]): 690 nM
Ki (human orexin 1 receptor; read-out: hOX1 Ki (nm)): 48 nM
Ki (rat orexin 1 receptor; read-out: rOX1 Ki (nm)): 42 nM

O=C(c1cccc(F)c1-c1ncco1)N1[C@@H]2CC[C@H]1[C@H](Nc1cnc(C(F)(F)F)cn1)C2 [Example 260, (3-fluoro-2-(oxazol-2-yl)phenyl)((1S,2R,4R)-2-((5-(trifluoromethyl)pyrazin-2-yl)amino)-7-azabicyclo[2.2.1]heptan-7-yl)methanone]
Ki (human orexin 2 receptor; [1]): 519 nM
Ki (human orexin 1 receptor; read-out: hOX1 Ki (nm)): 10 nM
Ki (rat orexin 1 receptor; read-out: rOX1 Ki (nm)): 14 nM

O=C(c1cccc(F)c1-c1cccnn1)N1[C@@H]2CC[C@H]1[C@H](Nc1cnc(C(F)(F)F)cn1)C2 [Example 262, (3-fluoro-2-(pyridazin-3-yl)phenyl)((1S,2R,4R)-2-((5-(trifluoromethyl)pyrazin-2-yl)amino)-7-azabicyclo[2.2.1]heptan-7-yl)methanone]
Ki (human orexin 2 receptor; [1]): 4200 nM
Ki (human orexin 1 receptor; [2]): 175 nM
Ki (rat orexin 1 receptor; [3]): 106 nM

Cc1cccc(C(=O)N2[C@@H]3CC[C@H]2[C@H](Nc2cnc(C(F)(F)F)cn2)C3)c1-c1cccnn1 [Example 263, (3-methyl-2-(pyridazin-3-yl)phenyl)((1S,2R,4R)-2-((5-(trifluoromethyl)pyrazin-2-yl)amino)-7-azabicyclo[2.2.1]heptan-7-yl)methanone]
Ki (human orexin 2 receptor; [1]): 1100 nM
Ki (human orexin 1 receptor; read-out: hOX1 Ki (nm)): 41 nM
Ki (rat orexin 1 receptor; read-out: rOX1 Ki (nm)): 44 nM

O=C(c1ccc(F)cc1-c1ncccn1)N1[C@@H]2CC[C@H]1[C@H](Nc1cnc(C(F)(F)F)cn1)C2 [Example 267, (4-fluoro-2-(pyrimidin-2-yl)phenyl)((1S,2R,4R)-2-((5-(trifluoromethyl)pyrazin-2-yl)amino)-7-azabicyclo[2.2.1]heptan-7-yl)methanone]
Ki (human orexin 2 receptor; [1]): 1700 nM
Ki (human orexin 1 receptor; read-out: hOX1 Ki (nm)): 61 nM
Ki (rat orexin 1 receptor; read-out: rOX1 Ki (nm)): 33 nM

O=C(c1cccc(F)c1-n1nccn1)N1[C@@H]2CC[C@H]1[C@H](Nc1ncc(C(F)(F)F)cn1)C2 [Example 269, (3-fluoro-2-(2H-1,2,3-triazol-2-yl)phenyl)((1S,2R,4R)-2-((5-(trifluoromethyl)pyrimidin-2-yl)amino)-7-azabicyclo[2.2.1]heptan-7-yl)methanone]
Ki (human orexin 2 receptor; [1]): 1700 nM
Ki (human orexin 1 receptor; [2]): 111 nM
Ki (rat orexin 1 receptor; read-out: rOX1 Ki (nm)): 48 nM

O=C(c1cccc(F)c1-c1ncccn1)N1[C@@H]2CC[C@H]1[C@H](Nc1ncc(C(F)(F)F)cn1)C2 [Example 271, (3-fluoro-2-(pyrimidin-2-yl)phenyl)((1S,2R,4R)-2-((5-(trifluoromethyl)pyrimidin-2-yl)amino)-7-azabicyclo[2.2.1]heptan-7-yl)methanone]
Ki (human orexin 2 receptor; [1]): 2300 nM
Ki (human orexin 1 receptor; read-out: hOX1 Ki (nm)): 42 nM
Ki (rat orexin 1 receptor; read-out: rOX1 Ki (nm)): 41 nM

Cc1cccc(C(=O)N2[C@@H]3CC[C@H]2[C@H](Nc2ncc(C(F)(F)F)cn2)C3)c1-n1nccn1 [Example 272, (3-methyl-2-(2H-1,2,3-triazol-2-yl)phenyl)((1S,2R,4R)-2-((5-(trifluoromethyl)pyrimidin-2-yl)amino)-7-azabicyclo[2.2.1]heptan-7-yl)methanone]
Ki (human orexin 2 receptor; [1]): 742 nM
Ki (human orexin 1 receptor; read-out: hOX1 Ki (nm)): 26 nM
Ki (rat orexin 1 receptor; read-out: rOX1 Ki (nm)): 21 nM

Cc1cccc(C(=O)N2[C@@H]3CC[C@H]2[C@H](Nc2ncc(C(F)(F)F)cn2)C3)c1I [Example 276, (2-iodo-3-methylphenyl)((1S,2R,4R)-2-((5-(trifluoromethyl)pyrimidin-2-yl)amino)-7-azabicyclo[2.2.1]heptan-7-yl)methanone]
Ki (human orexin 2 receptor; [1]): 2500 nM
Ki (human orexin 1 receptor; read-out: hOX1 Ki (nm)): 97 nM
Ki (rat orexin 1 receptor; [3]): 133 nM

Cc1cnc(N[C@@H]2C[C@H]3CC[C@@H]2N3C(=O)c2cccc(F)c2-c2ncccn2)cn1 [Example 278, (3-fluoro-2-(pyrimidin-2-yl)phenyl)((1S,2R,4R)-2-((5-methylpyrazin-2-yl)amino)-7-azabicyclo[2.2.1]heptan-7-yl)methanone]
Ki (human orexin 2 receptor; [1]): 934 nM
Ki (human orexin 1 receptor; read-out: hOX1 Ki (nm)): 77 nM
Ki (rat orexin 1 receptor; read-out: rOX1 Ki (nm)): 87 nM

O=C(c1cccc(F)c1-c1ncccn1)N1[C@@H]2CC[C@H]1[C@H](Nc1ccc(C(F)(F)F)cn1)C2 [Example 279, (3-fluoro-2-(pyrimidin-2-yl)phenyl)((1S,2R,4R)-2-((5-(trifluoromethyl)pyridin-2-yl)amino)-7-azabicyclo[2.2.1]heptan-7-yl)methanone]
Ki (human orexin 2 receptor; hOX2 Ki (nm)): 1100 nM
Ki (human orexin 1 receptor; hOX1 Ki (nm)): 8 nM
Ki (rat orexin 1 receptor; rOX1 Ki (nm)): 15 nM

O=C(c1ccc(F)cc1-c1ncccn1)N1[C@@H]2CC[C@H]1[C@H](Nc1ccc(C(F)(F)F)cn1)C2 [Example 280, (4-fluoro-2-(pyrimidin-2-yl)phenyl)((1S,2R,4R)-2-((5-(trifluoromethyl)pyridin-2-yl)amino)-7-azabicyclo[2.2.1]heptan-7-yl)methanone]
Ki (human orexin 2 receptor; [1]): 1300 nM
Ki (human orexin 1 receptor; read-out: hOX1 Ki (nm)): 37 nM
Ki (rat orexin 1 receptor; read-out: rOX1 Ki (nm)): 39 nM

O=C(c1cccc(F)c1-c1ncco1)N1[C@@H]2CC[C@H]1[C@H](Nc1ncc(C(F)(F)F)cn1)C2 [Example 284, (3-fluoro-2-(oxazol-2-yl)phenyl)((1S,2R,4R)-2-((5-(trifluoromethyl)pyrimidin-2-yl)amino)-7-azabicyclo[2.2.1]heptan-7-yl)methanone]
Ki (human orexin 2 receptor; [1]): 1700 nM
Ki (human orexin 1 receptor; read-out: hOX1 Ki (nm)): 27 nM
Ki (rat orexin 1 receptor; read-out: rOX1 Ki (nm)): 29 nM

O=C(c1ncccc1-n1nccn1)N1[C@@H]2CC[C@H]1[C@H](Nc1cnc(C(F)(F)F)cn1)C2 [Example 288, (3-(2H-1,2,3-triazol-2-yl)pyridin-2-yl)((1S,2R,4R)-2-((5-(trifluoromethyl)pyrazin-2-yl)amino)-7-azabicyclo[2.2.1]heptan-7-yl)methanone]
Ki (human orexin 2 receptor; [1]): 1900 nM
Ki (human orexin 1 receptor; [2]): 128 nM
Ki (rat orexin 1 receptor; read-out: rOX1 Ki (nm)): 94 nM
